According to patent publication US20250154611A1, “SYSTEMS AND METHODS TO DETECT STEM CELL STRESS AND USES THEREOF” (Wayne State University, priority 2014, published 2025):

Key:
AKT = target: T1, AKT (Mus musculus, UniProt P31750); experiment: phospho-AKT western blot in mESCs under 200 mM sorbitol; format: cell-based; details: 200 mM; persisted through 1 hr
T1 construct: endogenous in cells; host or cells: mESC-D3 (ATCC)
Method: FIG. 14. […] Blots are representative of triplicate experiments. Phospho-proteins and their loading controls are grouped between black lines.
FIG. 15. […] Blots are representative of triplicate experiments.
Hyperosmotic activation of signaling enzymes. […] Zhong, 2010; Xie, 2011. […] To determine the kinetics of activation of these five kinases in the described system, mESCs were treated with 200 mM sorbitol for 1 hr. Expression levels of the activated (i.e., phosphorylated) enzymes were assayed by western blot analysis (FIG. 14), including phospho-p38MAPK, phospho-JNK, phospho-MEK1/2, and phospho-AKT (the downstream effector of PI3K signaling).
Efficacy of enzyme inhibitors.

mESCs = experiment: RT-qPCR of lineage markers Dab2, Lrp2, Fgf5 in mESC monolayer; format: cell-based, mouse; details: 24 hr
Description: FIGS. 16A-16E. Hyperosmotic stress in mESCs impacts transcription factor expression at protein and mRNA levels. (FIG. 16A) The inner cell mass (ICM) of the blastocyst coexpresses Oct4/Rex1/Nanog in pluripotent cells at E3.5. After E3.5 a Rex1 subpopulation delaminates from the ICM and expresses primitive endoderm (PrEndo) marker, Lrp2, at E3.5 and extraembryonic endoderm (ExEndo) marker, Dab2, at E4.5. At E4.75, Rex1 decreases in the remaining cells of the ICM and, by E5.5, fibroblast growth factor (FGF)5 is expressed in embryonic ectoderm (EmEcto). […] (FIG. 16C) Total RNA was isolated and subjected to reverse transcription to form complementary DNA (cDNA). Real-time quantitative PCR (RTqPCR) was performed with Oct4, Nanog, and Rex1 primers. Histograms represent relative fold change in mRNA expression using the ddCt method. (FIG. 16D) mESCs in monolayer were incubated±sorbitol and ±LIF for 24 hr. Dab2, Lrp2, and Fgf5 mRNA transcript levels were examined by RT-qPCR. […] Error flags are the standard error of the mean (n=3). “a” indicates significant difference for sorbitol +LIF compared with LIF− at 24 hr. […]
RT-qPCR analysis. mESCs were trypsinized and harvested for RT-Qpcr analysis using a 7500 Fast Real Time PCR System (Applied Biosystems). […] RNA content was measured using ND-1000 Spectrophotometer (NanoDrop and ThermoScientific, Wilmington, DE). Complementary DNA (cDNA) was synthesized from 50 to 100 ng of total RNA using QuantiTect Reverse Transcription Kit (Qiagen) according to the manufacturer's instructions, and diluted 1:5. […]
Primer pairs were checked for specificity using BLAST analysis and were checked by both agarose gel electrophoresis and thermal dissociation curves to ensure amplification of a single product, and to rule out formation of primer dimers during the RT-qPCR. […] The expression of the target genes was quantified against that of two internal reference genes, glyceraldehyde-3-phosphate dehydrogenase (GAPDH) and 18s ribosomal RNA subunit (18s rRNA). […] Fold change was determined using the ddCt method. […]

Rex1 = experiment: Immunoblot of endogenous Rex1 protein in Rex1-RFP ESCs; format: cell-based, mouse; details: 3 days
Method: FIG. 27. Rex1 promoter RFP have a stress dose-dependent loss of endogenous Rex1 protein corresponding to dose-dependent loss of Rex1 activity shown in FIG. 24. (A) Rex1-RFP mESCs expressing cultured until 30% confluent, treated with 0 mM, 200-300 mM sorbitol in 25 mM increments for 3 days (as in FIG. 24), lysed, size fractionated by SDS-PAGE, blotted, probed for Rex1 and ACTB proteins and analyzed for changes compared to time zero and for stress dose responses. The histogram bars are derived from three independent experiments, one of which is shown in the top panel of FIG. 27, shown are X+/−s.e.m., n=3, (a) is P<0.01 and (b) indicates not significant. FIG. 27, bottom panel.
Immunoblot. After treatment, the ESCs were rinsed with PBS, lysed with RIPA buffer supplemented with protease inhibitors and sonicated briefly. Total protein concentration was determined using Pierce BCA protein assay reagent admixed with Laemmli sample buffer, and boiled for 5 min. Equal total protein amounts from the lysates were size-fractionated by 5-20% gradient SDS-PAGE and transferred onto nitrocellulose membrane. Rex1 […] signals were detected using ECL reagent with X-ray films and quantified using ImageJ 1.48v software (NIH, USA).
Finally it was tested whether endogenous Rex1 protein levels decreased commensurately with decreases in Rex1-RFP activity levels assayed in FIG. 24. Rex1-RFP ESCs were cultured for 3 days with 0-300 mM sorbitol and assayed by immunoblot for endogenous Rex1 levels normalized to ACTB loading controls and with time zero unstressed Rex1 set to 100 as a baseline level. Whereas stress-induced decrease in Rex1 activity in FIG. 24 were 20% and 70% at 200 mM and 300 mM sorbitol, respectively endogenous Rex1 protein losses were 30% and 70% at 200 mM and 300 mM, respectively (FIG. 27). Through the series from 200 mM to 300 mM sorbitol there was generally good agreement between activity level and endogenous protein level for Rex1 at 3 days of stress and with Rex1 protein loss at 1 day (Example 2). […]

[1] = 200 mM +LIF, vs time-matched +LIF and -LIF controls

T1 sequence (P31750 whole entry): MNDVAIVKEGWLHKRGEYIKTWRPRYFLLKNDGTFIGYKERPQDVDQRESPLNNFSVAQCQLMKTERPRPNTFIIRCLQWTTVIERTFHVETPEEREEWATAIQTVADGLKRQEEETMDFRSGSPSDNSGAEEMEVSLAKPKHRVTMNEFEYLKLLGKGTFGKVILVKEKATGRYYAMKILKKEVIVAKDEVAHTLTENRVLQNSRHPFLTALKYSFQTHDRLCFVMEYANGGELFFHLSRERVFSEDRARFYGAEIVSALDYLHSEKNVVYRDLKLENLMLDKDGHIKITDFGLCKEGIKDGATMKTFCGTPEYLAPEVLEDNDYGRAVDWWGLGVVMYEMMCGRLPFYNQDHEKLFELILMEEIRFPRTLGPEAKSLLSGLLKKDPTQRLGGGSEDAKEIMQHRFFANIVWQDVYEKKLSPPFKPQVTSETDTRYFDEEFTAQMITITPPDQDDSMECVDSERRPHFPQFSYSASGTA

Structure (SMILES): OC[C@@H](O)[C@@H](O)[C@H](O)[C@@H](O)CO [sorbitol]
- time of increased AKT activation (AKT): 20 to 30 min
- Dab2 mRNA expression (mESCs; [1]): significantly higher
- Lrp2 mRNA expression (mESCs; [1]): significantly higher
- upregulation of EmEcto marker Fgf5 mRNA (mESCs; 200 mM): suppressed
- endogenous Rex1 protein loss (Rex1; 200 mM): 30%
- endogenous Rex1 protein loss (Rex1; 300 mM): 70%
- endogenous Rex1 protein (Rex1; 225-300 mM, not at 200 mM): significantly lower
